Source: ChEMBL document CHEMBL4000250, “Synthesis of new derivatives of 21-imidazolyl-16-dehydropregnenolone as inhibitors of 5α-reductase 2 and with cytotoxic activity in cancer cells” (Bioorg Med Chem, 2017)
Activity calls are given as the source filed them. The calls are words filed in the database; no cut-off is given here.

System: Syrian golden hamster
Test: Toxicity in castrated golden hamster at 2 mg/kg, sc co-administered with testosterone for 6 days
Format: organism-based, Mesocricetus auratus
Conditions: in vivo, 144 h

| Structure (SMILES) | Activity |
| --- | --- |
| CCCCCC(=O)O[C@H]1CC[C@@]2(C)C(=CC[C@@H]3[C@@H]2CC[C@]2(C)C(C(=O)Cn4ccnc4)=CC[C@@H]32)C1 | Non-Toxic |
| CCCC(=O)O[C@H]1CC[C@@]2(C)C(=CC[C@@H]3[C@@H]2CC[C@]2(C)C(C(=O)Cn4ccnc4)=CC[C@@H]32)C1 | Non-Toxic |
| C[C@]12CC[C@H](OC(=O)C3CCCCC3)CC1=CC[C@@H]1[C@@H]2CC[C@]2(C)C(C(=O)Cn3ccnc3)=CC[C@@H]12 | Non-Toxic |

Target: T1, 3-oxo-5-alpha-steroid 4-dehydrogenase 1 (Rattus norvegicus, UniProt P24008)
T1 sequence (P24008 whole entry): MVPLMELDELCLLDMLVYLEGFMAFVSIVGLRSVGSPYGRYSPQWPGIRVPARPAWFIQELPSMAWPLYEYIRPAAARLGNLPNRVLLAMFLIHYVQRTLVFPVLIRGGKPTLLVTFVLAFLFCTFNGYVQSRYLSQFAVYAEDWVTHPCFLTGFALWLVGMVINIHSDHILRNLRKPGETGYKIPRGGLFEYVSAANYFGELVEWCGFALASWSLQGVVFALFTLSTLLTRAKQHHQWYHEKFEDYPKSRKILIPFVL
Test: Inhibition of rat liver microsomal 5-alpha reductase 1 assessed as decrease in conversion of testosterone to dihydrotestosterone by chromatographic method
Conditions: not given

| Structure (SMILES) | IC50 |
| --- | --- |
| CCCCCC(=O)O[C@H]1CC[C@@]2(C)C(=CC[C@@H]3[C@@H]2CC[C@]2(C)C(C(=O)Cn4ccnc4)=CC[C@@H]32)C1 | Not Active |
| CCCC(=O)O[C@H]1CC[C@@]2(C)C(=CC[C@@H]3[C@@H]2CC[C@]2(C)C(C(=O)Cn4ccnc4)=CC[C@@H]32)C1 | Not Active |
| C[C@]12CC[C@H](OC(=O)C3CCCCC3)CC1=CC[C@@H]1[C@@H]2CC[C@]2(C)C(C(=O)Cn3ccnc3)=CC[C@@H]12 | Not Active |

System: Syrian golden hamster
Test: Hyperplasia activity in castrated golden hamster assessed as prostate weight at 2 mg/kg, sc co-administered with testosterone for 6 days (reference value: 98 +/- 12.6 mg)
Format: functional, Mesocricetus auratus
Conditions: not given

| Structure (SMILES) | Activity [mg] |
| --- | --- |
| CCCCCC(=O)O[C@H]1CC[C@@]2(C)C(=CC[C@@H]3[C@@H]2CC[C@]2(C)C(C(=O)Cn4ccnc4)=CC[C@@H]32)C1 | 71.85 |
| CCCC(=O)O[C@H]1CC[C@@]2(C)C(=CC[C@@H]3[C@@H]2CC[C@]2(C)C(C(=O)Cn4ccnc4)=CC[C@@H]32)C1 | 83.43 |
| C[C@]12CC[C@H](OC(=O)C3CCCCC3)CC1=CC[C@@H]1[C@@H]2CC[C@]2(C)C(C(=O)Cn3ccnc3)=CC[C@@H]12 | 54.3 |

System: SK-LU-1
Test: Cytotoxicity against human SKLU1 cells assessed as growth inhibition at 50 uM after 48 hrs by sulforhodamine B assay relative to control
Format: functional
Conditions: not given

| Structure (SMILES) | growth inhibition (GI) |
| --- | --- |
| C[C@]12CC[C@H](OC(=O)C3CCCCC3)CC1=CC[C@@H]1[C@@H]2CC[C@]2(C)C(C(=O)Cn3ccnc3)=CC[C@@H]12 | inactive |

Same assay, conditions: SK-LU-1, 48 h, read-out: GI

| Structure (SMILES) | inhibition of growth at 50 µM [%] |
| --- | --- |
| CCCCCC(=O)O[C@H]1CC[C@@]2(C)C(=CC[C@@H]3[C@@H]2CC[C@]2(C)C(C(=O)Cn4ccnc4)=CC[C@@H]32)C1 | 28.5 |
| CCCC(=O)O[C@H]1CC[C@@]2(C)C(=CC[C@@H]3[C@@H]2CC[C@]2(C)C(C(=O)Cn4ccnc4)=CC[C@@H]32)C1 | 25.2 |

Target: T2, 3-oxo-5-alpha-steroid 4-dehydrogenase 2 (Homo sapiens, UniProt P31213)
T2 sequence (P31213 whole entry): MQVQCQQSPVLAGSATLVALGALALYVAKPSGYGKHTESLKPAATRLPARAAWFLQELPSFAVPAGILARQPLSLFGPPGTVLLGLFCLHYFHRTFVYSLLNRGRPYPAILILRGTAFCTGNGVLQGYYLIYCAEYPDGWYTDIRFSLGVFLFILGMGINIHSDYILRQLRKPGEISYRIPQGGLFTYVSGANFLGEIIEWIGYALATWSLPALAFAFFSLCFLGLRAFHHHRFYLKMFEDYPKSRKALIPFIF
Test: Inhibition of human prostate 5-alpha reductase 2 assessed as decrease in conversion of testosterone to dihydrotestosterone by chromatographic method
Conditions: not given

| Structure (SMILES) | IC50 |
| --- | --- |
| CCCCCC(=O)O[C@H]1CC[C@@]2(C)C(=CC[C@@H]3[C@@H]2CC[C@]2(C)C(C(=O)Cn4ccnc4)=CC[C@@H]32)C1 | Not Active |
| CCCC(=O)O[C@H]1CC[C@@]2(C)C(=CC[C@@H]3[C@@H]2CC[C@]2(C)C(C(=O)Cn4ccnc4)=CC[C@@H]32)C1 | Not Active |

Same assay, conditions: read-out: IC50

| Structure (SMILES) | IC50 [µM] |
| --- | --- |
| C[C@]12CC[C@H](OC(=O)C3CCCCC3)CC1=CC[C@@H]1[C@@H]2CC[C@]2(C)C(C(=O)Cn3ccnc3)=CC[C@@H]12 | 0.0293 |

System: MCF7
Test: Cytotoxicity against human MCF7 cells assessed as growth inhibition at 50 uM after 48 hrs by sulforhodamine B assay relative to control
Format: functional
Conditions: not given

| Structure (SMILES) | growth inhibition (GI) |
| --- | --- |
| C[C@]12CC[C@H](OC(=O)C3CCCCC3)CC1=CC[C@@H]1[C@@H]2CC[C@]2(C)C(C(=O)Cn3ccnc3)=CC[C@@H]12 | inactive |

Same assay, conditions: MCF7, 48 h, read-out: GI

| Structure (SMILES) | inhibition of growth at 50 µM [%] |
| --- | --- |
| CCCCCC(=O)O[C@H]1CC[C@@]2(C)C(=CC[C@@H]3[C@@H]2CC[C@]2(C)C(C(=O)Cn4ccnc4)=CC[C@@H]32)C1 | 28.1 |
| CCCC(=O)O[C@H]1CC[C@@]2(C)C(=CC[C@@H]3[C@@H]2CC[C@]2(C)C(C(=O)Cn4ccnc4)=CC[C@@H]32)C1 | 0 |

System: PC-3
Test: Cytotoxicity against human PC3 cells assessed as growth inhibition at 50 uM after 48 hrs by sulforhodamine B assay relative to control
Format: functional
Conditions: not given

| Structure (SMILES) | growth inhibition (GI) |
| --- | --- |
| C[C@]12CC[C@H](OC(=O)C3CCCCC3)CC1=CC[C@@H]1[C@@H]2CC[C@]2(C)C(C(=O)Cn3ccnc3)=CC[C@@H]12 | inactive |

Same assay, conditions: PC-3, 48 h, read-out: GI

| Structure (SMILES) | inhibition of growth at 50 µM [%] |
| --- | --- |
| CCCCCC(=O)O[C@H]1CC[C@@]2(C)C(=CC[C@@H]3[C@@H]2CC[C@]2(C)C(C(=O)Cn4ccnc4)=CC[C@@H]32)C1 | 17.2 |
| CCCC(=O)O[C@H]1CC[C@@]2(C)C(=CC[C@@H]3[C@@H]2CC[C@]2(C)C(C(=O)Cn4ccnc4)=CC[C@@H]32)C1 | 0 |

Target: T3, Androgen receptor (Rattus norvegicus) (UniProt P15207)
T3 sequence (whole entry): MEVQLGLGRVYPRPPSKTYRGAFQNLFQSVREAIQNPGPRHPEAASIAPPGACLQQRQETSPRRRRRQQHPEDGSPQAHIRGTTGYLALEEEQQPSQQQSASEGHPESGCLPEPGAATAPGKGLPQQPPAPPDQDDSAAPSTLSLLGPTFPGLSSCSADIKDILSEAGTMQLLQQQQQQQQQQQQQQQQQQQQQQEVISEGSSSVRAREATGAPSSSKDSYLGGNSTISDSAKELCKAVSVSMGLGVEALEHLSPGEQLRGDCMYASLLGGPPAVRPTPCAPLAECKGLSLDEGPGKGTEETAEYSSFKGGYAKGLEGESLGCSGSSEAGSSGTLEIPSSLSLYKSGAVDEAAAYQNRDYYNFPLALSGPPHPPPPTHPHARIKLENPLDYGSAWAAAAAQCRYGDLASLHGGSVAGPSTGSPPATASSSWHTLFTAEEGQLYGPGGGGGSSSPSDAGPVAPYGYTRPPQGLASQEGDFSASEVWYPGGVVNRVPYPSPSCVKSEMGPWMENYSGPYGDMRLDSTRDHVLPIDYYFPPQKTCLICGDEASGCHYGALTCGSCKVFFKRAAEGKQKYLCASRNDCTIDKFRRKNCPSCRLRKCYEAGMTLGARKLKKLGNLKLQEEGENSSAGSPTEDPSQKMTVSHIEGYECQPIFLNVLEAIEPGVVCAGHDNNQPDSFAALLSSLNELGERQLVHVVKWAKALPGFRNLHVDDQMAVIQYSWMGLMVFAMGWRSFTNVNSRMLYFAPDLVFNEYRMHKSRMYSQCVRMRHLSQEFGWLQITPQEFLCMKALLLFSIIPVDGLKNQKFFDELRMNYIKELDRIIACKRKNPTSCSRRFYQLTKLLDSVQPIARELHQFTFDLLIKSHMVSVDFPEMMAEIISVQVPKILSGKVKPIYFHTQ
Test: Displacement of [3H]-MIB from rat prostate cytosolic androgen receptor by liquid scintillation counting method
Conditions: not given

| Structure (SMILES) | inhibition |
| --- | --- |
| CCCCCC(=O)O[C@H]1CC[C@@]2(C)C(=CC[C@@H]3[C@@H]2CC[C@]2(C)C(C(=O)Cn4ccnc4)=CC[C@@H]32)C1 | inactive |
| CCCC(=O)O[C@H]1CC[C@@]2(C)C(=CC[C@@H]3[C@@H]2CC[C@]2(C)C(C(=O)Cn4ccnc4)=CC[C@@H]32)C1 | inactive |
| C[C@]12CC[C@H](OC(=O)C3CCCCC3)CC1=CC[C@@H]1[C@@H]2CC[C@]2(C)C(C(=O)Cn3ccnc3)=CC[C@@H]12 | inactive |

System: Syrian golden hamster
Test: Hyperplasia activity in castrated golden hamster assessed as seminal vesicles weight at 2 mg/kg, sc co-administered with testosterone for 6 days (reference value: 200.6 +/- 55 mg)
Format: functional, Mesocricetus auratus
Conditions: not given

| Structure (SMILES) | Activity [mg] |
| --- | --- |
| CCCCCC(=O)O[C@H]1CC[C@@]2(C)C(=CC[C@@H]3[C@@H]2CC[C@]2(C)C(C(=O)Cn4ccnc4)=CC[C@@H]32)C1 | 198.33 |
| CCCC(=O)O[C@H]1CC[C@@]2(C)C(=CC[C@@H]3[C@@H]2CC[C@]2(C)C(C(=O)Cn4ccnc4)=CC[C@@H]32)C1 | 217.45 |
| C[C@]12CC[C@H](OC(=O)C3CCCCC3)CC1=CC[C@@H]1[C@@H]2CC[C@]2(C)C(C(=O)Cn3ccnc3)=CC[C@@H]12 | 143.68 |

System: Syrian golden hamster
Test: Hyperplasia activity in castrated golden hamster assessed as diameter of pigmented spot of flank organs at 2 mg/kg, sc administered for 6 days (reference value: 5.65 +/- 1.12 mm)
Format: functional, Mesocricetus auratus
Conditions: not given

| Structure (SMILES) | Activity [mm] |
| --- | --- |
| CCCCCC(=O)O[C@H]1CC[C@@]2(C)C(=CC[C@@H]3[C@@H]2CC[C@]2(C)C(C(=O)Cn4ccnc4)=CC[C@@H]32)C1 | 3.36 |
| CCCC(=O)O[C@H]1CC[C@@]2(C)C(=CC[C@@H]3[C@@H]2CC[C@]2(C)C(C(=O)Cn4ccnc4)=CC[C@@H]32)C1 | 1.98 |
| C[C@]12CC[C@H](OC(=O)C3CCCCC3)CC1=CC[C@@H]1[C@@H]2CC[C@]2(C)C(C(=O)Cn3ccnc3)=CC[C@@H]12 | 2.4 |
